Laboratory results from patent US8563616B2, “Desensitizing drug product” (priority 2009, dated 2013).
Where two headings read alike, the source gives them in different places.

Tests used:
[1] = Melt System III, cited from earlier work; for Percentage in aq: amount in aqueous phase/total amount in whole system × 100; for Percentage in oil: amount in oil phase/total amount in whole system × 100; for Conc in aq: g per 100 g of aqueous phase; for Conc in oil: g per 100 g of oil phase
[2] = pKa and ionization of lidocaine; format: physicochemical; conditions: pH 8.9
[3] = mixture containing 25% ethyl alcohol, 5% lidocaine, pH 9.2 phosphate buffer; cited from earlier work
[4] = in the mixtures that formed a homogenous oil; cited from earlier work

CCN(CC)CC(=O)Nc1c(C)cccc1C [Lidocaine, lidocaine]
Percentage in aq [1]: 20.80%
Percentage in oil [1]: approximately 80%
Percentage in oil ([1]; listed as L): 79.20%
Conc in aq [1]: 1.09%
Conc in oil [1]: 87.00%
ionized [2]: 10%
concentration of lidocaine in the oil [3]: 73 % (w:w)

Cc1ccc(C(C)C)c(O)c1 [Thymol, thymol]
chemical stability [4]: chemically stable
Percentage in aq [1]: 14.88%
Percentage in oil [1]: approximately 85%
Percentage in oil ([1]; listed as T): 85.13%
Conc in aq [1]: 0.09%
Conc in oil [1]: 10.60%
